According to ChEMBL document CHEMBL1201862, “PubChem BioAssay data set” (2004):
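96-well plates; 48 h exposure; 5 concentrations. Endpoints by linear interpolation between flanking doses. Not reached: highest tested concentration assigned. GI50 = concentration required for 50% inhibition of growth.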 Activity calls are given as the source filed them. Rule as the data show it: active = GI50 up to about 1.1 µM and inactive = higher.

Legend:
Assay in all cases: DTP human tumour cell line panel, 48 h
786-0 = tested on: 786-0
A498 = tested on: A498
A549 = tested on: A549
ACHN = tested on: ACHN
CAKI-1 = tested on: CAKI-1
CCRF-CEM = tested on: CCRF-CEM
COLO 205 = tested on: COLO 205
DLD-1 = tested on: DLD-1
DMS-114 = tested on: DMS-114
DMS-273 = tested on: DMS-273
EKVX = tested on: EKVX
HCC 2998 = tested on: HCC 2998
HCT-116 = tested on: HCT-116
HCT-15 = tested on: HCT-15
HL-60 = tested on: HL-60
HOP-18 = tested on: HOP-18
HOP-62 = tested on: HOP-62
HOP-92 = tested on: HOP-92
HT-29 = tested on: HT-29
IGROV-1 = tested on: IGROV-1
K562 = tested on: K562
KM-20L2 = tested on: KM-20L2
KM12 = tested on: KM12
LOX IMVI = tested on: LOX IMVI
LXFL 529 = tested on: LXFL 529
M14 = tested on: M14
M19-MEL = tested on: M19-MEL
MCF7 = tested on: MCF7
MOLT-4 = tested on: MOLT-4
Malme-3M = tested on: Malme-3M
NCI-H226 = tested on: NCI-H226
NCI-H23 = tested on: NCI-H23
NCI-H460 = tested on: NCI-H460
NCI-H522 = tested on: NCI-H522
NCI/ADR-RES = tested on: NCI/ADR-RES
OVCAR-3 = tested on: OVCAR-3
OVCAR-4 = tested on: OVCAR-4
OVCAR-5 = tested on: OVCAR-5
OVCAR-8 = tested on: OVCAR-8
RPMI-8226 = tested on: RPMI-8226
RXF 393 = tested on: RXF 393
RXF 631 = tested on: RXF 631
SF-268 = tested on: SF-268
SF-295 = tested on: SF-295
SF-539 = tested on: SF-539
SK-MEL-28 = tested on: SK-MEL-28
SK-MEL-2 = tested on: SK-MEL-2
SK-MEL-5 = tested on: SK-MEL-5
SK-OV-3 = tested on: SK-OV-3
SN12C = tested on: SN12C
SNB-19 = tested on: SNB-19
SNB-75 = tested on: SNB-75
SNB-78 = tested on: SNB-78
SW-620 = tested on: SW-620
TK-10 = tested on: TK-10
U-251 = tested on: U-251
UACC-257 = tested on: UACC-257
UACC-62 = tested on: UACC-62
UO-31 = tested on: UO-31
XF498 = tested on: XF498

CCN(CCCl)CCNc1c2ccccc2nc2ccc(OC)cc12
GI50 (786-0): 254 nM (active) | GI50 (A498): 1780 nM (inactive) | GI50 (A549): 557 nM (active) | GI50 (ACHN): 127 nM (active) | GI50 (CAKI-1): 361 nM (active) | GI50 (CCRF-CEM): 104 nM (active) | GI50 (COLO 205): 136 nM (active) | GI50 (DLD-1): 460 nM (active) | GI50 (DMS-114): 675 nM (active) | GI50 (DMS-273): 294 nM (active) | GI50 (EKVX): 1270 nM (inactive) | GI50 (HCC 2998): 847 nM (active) | GI50 (HCT-116): 236 nM (active) | GI50 (HCT-15): 731 nM | GI50 (HL-60): 199 nM (active) | GI50 (HOP-18): 2700 nM (inactive) | GI50 (HOP-62): 1120 nM (active) | GI50 (HOP-92): 822 nM (active) | GI50 (HT-29): 267 nM (active) | GI50 (IGROV-1): 463 nM (active) | GI50 (K562): 213 nM (active) | GI50 (KM-20L2): 448 nM (active) | GI50 (KM12): 603 nM (active) | GI50 (LOX IMVI): 310 nM (active) | GI50 (LXFL 529): 237 nM (active) | GI50 (M14): 1180 nM (inactive) | GI50 (M19-MEL): 703 nM (active) | GI50 (MCF7): 378 nM (active) | GI50 (MOLT-4): 42.6 nM (active) | GI50 (Malme-3M): 861 nM (active) | GI50 (NCI-H226): 600 nM (active) | GI50 (NCI-H23): 514 nM (active) | GI50 (NCI-H460): 273 nM (active) | GI50 (NCI-H522): 330 nM (active) | GI50 (NCI/ADR-RES): 1350 nM (inactive) | GI50 (OVCAR-3): 1380 nM (inactive) | GI50 (OVCAR-4): 794 nM (active) | GI50 (OVCAR-5): 1360 nM (inactive) | GI50 (OVCAR-8): 263 nM (active) | GI50 (RPMI-8226): 97.7 nM (active) | GI50 (RXF 393): 540 nM (active) | GI50 (RXF 631): 425 nM (active) | GI50 (SF-268): 454 nM (active) | GI50 (SF-295): 766 nM (active) | GI50 (SF-539): 502 nM (active) | GI50 (SK-MEL-28): 1520 nM (inactive) | GI50 (SK-MEL-2): 1030 nM (active) | GI50 (SK-MEL-5): 1120 nM (active) | GI50 (SK-OV-3): 1350 nM (inactive) | GI50 (SN12C): 548 nM (active) | GI50 (SNB-19): 1410 nM (inactive) | GI50 (SNB-75): 966 nM (active) | GI50 (SNB-78): 891 nM (active) | GI50 (SW-620): 132 nM (active) | GI50 (TK-10): 1580 nM (inactive) | GI50 (U-251): 906 nM (active) | GI50 (UACC-257): 1520 nM (inactive) | GI50 (UACC-62): 551 nM (active) | GI50 (UO-31): 1440 nM (inactive) | GI50 (XF498): 891 nM (active)
